We go through 88 compounds from a melting point compilation (Tetko et al.; mined from patent text by program, amines drawn as free bases though some values may be those of a salt).

SMILES strings stand for the structures.

For orientation: melting point means the temperature, or range, at which the solid turns liquid. Take `O=C(NC(CCO)c1ccccc1Br)c1c(F)cccc1F` (stereo not drawn): the melting point lay in the range of 63 to 65 °C.

In turn, `COC(=O)COCc1cc2cc(Cl)ccc2n1S(=O)(=O)c1ccccc1` came in with a melting point of 98 to 100 °C.

Compound `CNC(=NC#N)NCCSc1nccc(NC(N)=NCC(F)(F)F)n1` displayed a melting point of 218 to 221 °C.

With `CC(=O)Nc1ccc(-n2nc(C(=O)NC(C)(C)C)c3c2C2CCC3C2)cc1` (stereo not drawn), the melting point is 122 to 124 °C.

`CCC(C(=O)N(C)C)n1cc(C)c(-c2ccccc2)n1` (stereo not drawn) returned a melting point of 86 to 88 °C.

Turning to `COc1c(Cl)nc(N2CCOCC2)nc1Cl`, the melting point stood at 116 °C.

For `CCOC(CCP(=O)(OCC)OCC)(C(=O)c1ccccc1)c1ccccc1` (stereo not drawn), the melting point is 75 °C.

`CC(=O)c1ccc2c(c1)C(C)(C)c1cccnc1O2`: the melting point is 106 to 108 °C.

In turn, `CCOC(=O)c1cnc2occ(Br)c2c1` yielded a melting point of 107 to 108 °C.

`COC(=O)Cc1cc(=O)[nH]c2cc(F)ccc12` yielded a melting point of 255 to 256 °C.

`O=[N+]([O-])c1ccc(S(=O)(=O)NCc2ccc(Cl)cc2)c([N+](=O)[O-])c1`: the melting point is 161 to 162 °C.

Consider `CN(C)C(=O)Oc1ccc2nc(S(N)(=O)=O)sc2c1`, for which the melting point lay in the range of 208 to 209 °C.

With `C=C(CC(NC(=O)OC(C)(C)C)C(=O)OCC)CC(NC=O)(C(=O)OCC)C(=O)OCC` (stereo not drawn), the melting point amounted to 68 °C.

As to `CS(=O)(=O)Cc1ccc2oc([N+](=O)[O-])c(-c3ccccc3)c2c1`, the melting point fell in the range of 178 to 181 °C.

In turn, `CC(C#N)c1cc(O)cc2cc(-c3ccc(O)cc3)oc12` (stereo not drawn) gave a melting point of 183 to 185 °C.

Compound `CC(=O)NC[C@H]1CN(c2ccc(C3=CCCN(C(=O)OC(C)(C)C)CC3)c(F)c2)C(=O)O1` gave a melting point of 164 to 165 °C.

`COc1cc(OC)c(OC(=O)CS(=O)(=O)Nc2c(C(C)C)cccc2C(C)C)c(OC)c1` gave a melting point of 167 to 170 °C.

`O=C(c1ccncc1)c1cc2c(c(C(=O)O)c1)OC(c1ccccc1)(c1ccccc1)O2` came in with a melting point of 256 to 257 °C.

Take `COc1cc([N+](=O)[O-])c(N)cc1C(=O)Oc1ccccc1`: the melting point was 130 to 132 °C.

In the case of `CON=C(C)c1cc(C[C@H](NC(=O)c2c(Cl)cccc2Cl)C(=O)O)ccc1-c1ccccc1OC`, the melting point was 107 °C.

`CC(C)C[C@H](NC(=O)OC(C)(C)C)C(=O)NCCCC(c1ccc(F)cc1)c1ccc(F)cc1` displayed a melting point of 50 to 55 °C.

`Nc1nc(N2CCNCC2)c2nc(-c3ccccc3)c(N)nc2n1` gave a melting point of 150 to 155 °C.

Compound `C#CCOc1cc(Oc2c(F)cccc2F)ncn1` displayed a melting point of 67.2 °C.

Consider `O=c1cc(-c2ccc(OCCOCCOc3ccc(-c4cc(=O)c5c(O)cc(O)cc5o4)cc3)cc2)oc2cc(O)cc(O)c12`, for which the melting point lay within 268 to 270 °C.

With `CC(C)C[C@H](NC(=O)[C@H](Cc1c[nH]c2ccccc12)NC(=O)OC(C)(C)C)C(=O)O`, the melting point was 109 to 111 °C.

`CCc1cc(C(=O)c2ccccc2Cl)c(-n2c(C)nnc2CNC(=O)c2cc3ccccc3n2CC(=O)O)s1` yielded a melting point of 208 to 210 °C.

`Cn1c(-c2ccc(-c3nccs3)cc2)cnc1[C@H](Cc1ccccn1)N(C=O)c1cc2cc(Cl)ccc2o1`: the melting point was in the range of 144 to 146 °C.

The compound `N#Cc1nn(-c2c(Cl)cc(-c3ccc(C(F)(F)F)cc3)cc2Cl)c(N)c1SC(F)(F)F` gave a melting point of 181 to 184 °C.

`COc1ccc2c(c1)c(CC(=O)OCCNC(=O)c1cccnc1)c(C)n2C(=O)c1ccc(Cl)cc1`: the melting point was 123 to 125 °C.

In the case of `NS(=O)(=O)c1ccc(-c2oc3cc(F)ccc3c(=O)c2-c2ccc(Cl)c(Cl)c2)cc1`, the melting point lay within 190 to 191 °C.

In the case of `COCCOc1ccc(CCl)c(Oc2ncc(C(F)(F)F)cc2Cl)c1`, the melting point lay in the range of 108 to 111 °C.

Turning to `CCN1CCNC(=O)C1c1ccc(Nc2nc(Br)cn(CC)c2=O)cc1` (stereo not drawn), the melting point was 152 to 153 °C.

In turn, `COC(=O)C=Cc1cn(C)nc1[N+](=O)[O-]` came in with a melting point of 110 to 112 °C.

`CSc1ncc2c(=O)[nH]c(-c3ccccc3OCC(C)C)nc2n1` came in with a melting point of 185 to 186 °C.

For `CNc1nc2cccc(C(=O)O)c2s1`, the melting point was > 330 °C.

For the compound `CCOC(=O)CS(=O)(=O)C=C1SC=CS1`, the melting point is 134 to 136 °C.

Consider `CCOC(=O)Nc1ccc2nc(OCC)oc(=O)c2c1`, for which the melting point was 191 to 193 °C.

With `COc1ccc(Br)cc1-c1nc2ccc(OC(F)(F)F)cc2[nH]1`, the melting point fell in the range of 175 to 178 °C.

`O=C(O)COc1c2ccccc2c(-c2cc(Br)c(OC(Cc3ccccc3)C(=O)O)c(Br)c2)c2c1sc1ccccc12` (stereo not drawn) yielded a melting point of 110 to 120 °C.

For the compound `NCCNC(=S)Nc1c(Cl)cccc1Cl`, the melting point was in the range of 136 to 138 °C.

Compound `Cc1cc(OS(=O)(=O)C(F)(F)F)cc(=O)n1C` showed a melting point of 65 to 67 °C.

Consider `CC(C)(C)C(O)(COc1ccc(F)cc1)C(F)n1cncn1` (stereo not drawn), for which the melting point was in the range of 89 to 90 °C.

As for `COc1ccc(CC2SC(=O)NC2=O)c2c1N(Cc1ccc(N)cc1)C(=O)CC2` (stereo not drawn), the melting point lay within 174 to 175 °C.

In turn, `Nc1ncnc2c1ncn2[C@@H]1O[C@H](CSCCO)[C@@H](O)[C@H]1O` displayed a melting point of 198 to 201 °C.

With `CN1CCc2cc([N+](=O)[O-])c(O)cc2C(c2cccc3c2OCC3)C1` (single isomer, unassigned; (+)), the melting point is 122 to 123 °C.

Compound `CC(C)C(=O)O[C@H]1[C@H](C)OC(=O)[C@@H](NC(=O)OC(C)(C)C)COC(=O)[C@@H]1CI` showed a melting point of 168 to 171 °C.

`CN1CC(CCN2CC(=O)NC2=O)CC2c3cccc4[nH]cc(c34)CC21` (stereo not drawn): the melting point was in the range of 242 to 244 °C.

Turning to `COc1ccc(CNC(=O)C(=O)NCCc2ccccn2)cc1`, the melting point was in the range of 156 to 158 °C.

Consider `CC(C)c1ccccc1Sc1c(O)cc(-c2ccc(OCC3CCCCC3)cc2)oc1=O`, for which the melting point fell in the range of 187 to 188 °C.

For `CCC(C)NC(=O)n1c(=O)nc(N2CCOCC2)n1C` (stereo not drawn), the melting point worked out at 147 °C.

Regarding `N#CC(=NO)c1cc(F)ccc1F`, the melting point fell in the range of 64 to 67 °C.

Turning to `CCCC(=O)c1cnc2c(C)cccc2c1Nc1ccccc1F`, the melting point was in the range of 109 to 111 °C.

With `Oc1ccc(Nc2nnc(Cc3ccncc3)c3ccccc23)cc1`, the melting point was 239 to 241 °C.

The compound `O=C(CCc1nnc(-c2ccc3c(c2)CCO3)o1)c1cccs1` yielded a melting point of 151 to 152 °C.

The compound `COC(=O)c1ccc(-c2nnc(-c3ccc(C(C)C)cc3)s2)cc1` returned a melting point of 147 to 151 °C.

Compound `COC1OC(=O)c2c(O)cccc21` (stereo not drawn) had a melting point of 77 to 79 °C.

In turn, `CC(=O)Nc1ccccc1S(=O)(=O)NCCCCN1CCN(c2ncccn2)CC1` returned a melting point of 99 °C.

Take `O=[N+]([O-])c1ccc(I)c(-c2cc([N+](=O)[O-])ccc2I)c1`: the melting point was 230 to 232 °C.

As to `CC(=O)c1ccc2c(c1)N(C1CCN(CCc3ccc(F)cc3)CC1)CC2`, the melting point fell in the range of 90 to 92 °C.

As to `Cc1ccc(S(=O)(=O)OCCN2C(=O)c3cccc4cc5ccccc5c(c34)C2=O)cc1`, the melting point worked out at 240 °C.

Compound `O=C(Nc1nc(-c2ccco2)c(C(=O)c2ccnc(N3CCOCC3)c2)s1)c1ccncc1` displayed a melting point of 270 to 273 °C.

As for `CCC(Nc1ncnc2c1ncn2C1OC(CO)C(O)C1O)c1ccccc1` (stereo not drawn), the melting point lay in the range of 73 to 84 °C.

As to `NC(CCCCNC(=O)OCc1ccccc1)C(=O)NC1c2ccccc2-c2ccccc21` (stereo not drawn), the melting point was > 280 °C.

Take `CCOC(=O)C(O)=CC=C(SCc1ccccc1)C(=O)OCC`: the melting point was < 40 °C.

Regarding `CCOc1ccc(-c2ncc[nH]2)cc1`, the melting point was 168 to 169 °C.

Compound `Nc1cc(C(F)(F)F)cc2c(Cl)ccnc12` registered a melting point of 57 to 58 °C.

In the case of `COc1ccc(-c2cncc(OC3SCC(O)C(O)C3O)c2)c(OC)c1` (stereo not drawn), the melting point was determined as 184 °C.

With `O=C(C=Cc1cc(O)c(O)c(C(F)(F)F)c1)c1ccccc1`, the melting point lay within 196 to 201 °C.

Consider `Cc1cc(C)c(-n2ccc3c(N)nn(C)c(=O)c32)c(C)c1`, for which the melting point was in the range of 254 to 256 °C.

Take `C#CCOc1cc(C=O)ccc1OC`: the melting point is 66 to 67 °C.

Compound `Cc1c(C)c2c(c(C)c1O)C(c1ccc(N3CCOCC3)cc1)C(C)(C)O2` (stereo not drawn) showed a melting point of 91 to 93 °C.

Consider `COc1ccc(-c2nc3n(c2-c2ccccn2)CCC3)cc1`, for which the melting point was 142 to 145 °C.

Compound `C=CCOc1ccc(Br)cc1C(C)=NO` came in with a melting point of 110 to 111 °C.

As for `CC=CC(C)=C1C(=O)OC(=O)C1c1cc(C)n(-c2ccc(C)cc2)c1C` (stereo not drawn), the melting point was determined as 129 °C.

`CCOC(=O)c1oc2cccc(COC)c2c1C` had a melting point of 45 to 47 °C.

Turning to `Cc1cccc(C)c1N1CC(C)N(c2c(C)cccc2C)C1=NC(=O)C(F)(F)F` (stereo not drawn), the melting point was 232 to 235 °C.

As to `COc1cc(N)ccc1NC1=CC(=O)C(N)=CC1=O`, the melting point amounted to 267 °C.

`CC(C)CCC1(C(F)(F)F)NC(=O)Nc2ccc(F)cc21` (racemic) registered a melting point of 179 °C.

Take `C=CC(CC(=O)Nc1ccc(F)cc1)C(C)C` (stereo not drawn): the melting point lay in the range of 74 to 75 °C.

For `CC(C)Nc1ncc2cc(-c3c(Cl)cccc3Cl)c(=O)n(C)c2n1`, the melting point lay within 194 to 196 °C.

The compound `Cc1c(Sc2ccc(Cl)cc2)nn(-c2cccc(Cl)c2)c(=O)c1C#N` registered a melting point of 150 to 151 °C.

In the case of `FC(F)(F)c1ccc2c(c1)nc(/C=C/c1ccccc1)n2-c1ccccn1`, the melting point is 144 to 145 °C.

Consider `COC(=O)c1ccc2c(ccn2Cc2cccc(NC(=O)OC3CCCC3)c2)c1`, for which the melting point lay in the range of 131 to 133 °C.

Compound `COc1ccc2ncn(C3CCN(C(C)c4ccccc4)CC3)c(=O)c2c1` (stereo not drawn) displayed a melting point of 124 °C.

`O=C(NCCCOc1ccccn1)c1cccs1` showed a melting point of 91 to 92 °C.

In the case of `Cc1oc(=O)oc1CSc1ccc(Cl)cc1`, the melting point fell in the range of 54 to 57 °C.

In the case of `COc1ccc2cc(C3=CCNCC3)sc2c1`, the melting point lay in the range of 124 to 127 °C.

Take `COC(=O)c1ccc(Nc2nc(Nc3ccc(C(=O)OC)cc3)nc(Nc3ccc(C(=O)OCCOc4ccc(C(C)(C)CC(C)(C)C)cc4)cc3)n2)cc1`: the melting point was in the range of 157 to 160 °C.
